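Interpolation was linear, between the two tested concentrations surrounding the appropriate level; five concentrations were tested over 48 hours in 96-well plates. GI50 is the concentration that inhibits growth by half. TGI marks complete inhibition of growth.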
Columns and labels:
Experiment in all cases: NCI-60 cell line screen, 48 h
[1] = test system: NCI-H226 lung
[2] = test system: NCI-H23 lung
[3] = test system: NCI-H460 lung
[4] = test system: NCI-H522 lung
[5] = test system: NCI/ADR-RES ovarian
[6] = test system: OVCAR-3 ovarian
[7] = test system: OVCAR-4 ovarian
[8] = test system: OVCAR-5 ovarian
[9] = test system: OVCAR-8 ovarian
[10] = test system: PC-3 prostate
[11] = test system: RPMI-8226 leukemia
[12] = test system: RXF 393 renal
[13] = test system: SF-268 CNS
[14] = test system: SF-295 CNS
[15] = test system: SF-539 CNS
[16] = test system: SK-MEL-2 melanoma
[17] = test system: SK-MEL-28 melanoma
[18] = test system: SK-MEL-5 melanoma
[19] = test system: SK-OV-3 ovarian
[20] = test system: SN12C renal
[21] = test system: SNB-19 CNS
[22] = test system: SNB-75 CNS
[23] = test system: SR leukemia
[24] = test system: SW-620 colon
[25] = test system: T-47D breast
[26] = test system: TK-10 renal
[27] = test system: U251 CNS
[28] = test system: UACC-257 melanoma
[29] = test system: UACC-62 melanoma
[30] = test system: UO-31 renal

## CCN1C(=O)N(CC)C2NNC(Sc3c(C(=O)O)c4ccccc4n(CCC(C)C)c3=O)=NC21 (centres undefined)
[1]
  TGI: 21 µM
[2]
  GI50: 4.34 µM
  TGI: 16.6 µM
[3]
  GI50: 3.43 µM
  TGI: 13.3 µM
[4]
  GI50: 2.52 µM
  TGI: 8.42 µM
[5]
  GI50: 2.25 µM
  TGI: 5.8 µM
[6]
  GI50: 5 µM
  TGI: 21.3 µM
[7]
  GI50: 17.9 µM
  TGI: > 100 µM
[8]
  GI50: 3.06 µM
  TGI: 17.5 µM
[9]
  GI50: 5.54 µM
  TGI: 51.7 µM
[10]
  GI50: 6.19 µM
  TGI: > 100 µM
[11]
  GI50: 4.61 µM
  TGI: > 100 µM
[12]
  GI50: 2.16 µM
  TGI: 9.31 µM
[13]
  GI50: 10.4 µM
  TGI: > 100 µM
[14]
  GI50: 3.3 µM
  TGI: 13.2 µM
[15]
  GI50: 2.11 µM
  TGI: 5.63 µM
[16]
  GI50: 9.35 µM
  TGI: 31.2 µM
[17]
  GI50: 9.69 µM
  TGI: 31.4 µM
[18]
  GI50: 4.37 µM
  TGI: 16.4 µM
[19]
  GI50: 7.58 µM
  TGI: 69.1 µM
[20]
  GI50: 4.09 µM
  TGI: 18.2 µM
[21]
  GI50: 4.56 µM
  TGI: 25.1 µM
[22]
  GI50: 2.24 µM
  TGI: 9.19 µM
[23]
  GI50: 22 µM
  TGI: > 100 µM
[24]
  GI50: 6.5 µM
  TGI: 31 µM
[25]
  GI50: 20.5 µM
  TGI: > 100 µM
[26]
  GI50: 17.5 µM
  TGI: 63.8 µM
[27]
  GI50: 4.33 µM
  TGI: 36.9 µM
[28]
  GI50: 19.6 µM
  TGI: 71.5 µM
[29]
  GI50: 4.11 µM
  TGI: 19.8 µM
[30]
  GI50: 4.07 µM
  TGI: 22.5 µM

Reference: PubChem BioAssay (NCI)
